Source: ChEMBL document CHEMBL2380311 (Bioorg Med Chem Lett, 2013)
Active and inactive are the calls of the source. No cut-off for these calls is given here.

Tests used:
Cholinesterase = Cholinesterase (Equus caballus, UniProt P81908)
Description: Inhibition of equine serum BChE using butyrylthiocholine iodide as substrate after 5 mins by Ellman's method

Acetylcholinesterase = Acetylcholinesterase (Electrophorus electricus, UniProt O42275)
Description: Inhibition of electric eel AChE using acetylthiocholine iodide as substrate after 5 mins by Ellman's method

[1] = molecular target: Cholinesterase (Equus caballus) (UniProt P81908); test: Mixed-type inhibition of equine serum BChE using butyrylthiocholine iodide as substrate by Lineweaver-Burk reciprocal plot analysis
Sequence of Cholinesterase (Equus caballus) (P81908 whole entry): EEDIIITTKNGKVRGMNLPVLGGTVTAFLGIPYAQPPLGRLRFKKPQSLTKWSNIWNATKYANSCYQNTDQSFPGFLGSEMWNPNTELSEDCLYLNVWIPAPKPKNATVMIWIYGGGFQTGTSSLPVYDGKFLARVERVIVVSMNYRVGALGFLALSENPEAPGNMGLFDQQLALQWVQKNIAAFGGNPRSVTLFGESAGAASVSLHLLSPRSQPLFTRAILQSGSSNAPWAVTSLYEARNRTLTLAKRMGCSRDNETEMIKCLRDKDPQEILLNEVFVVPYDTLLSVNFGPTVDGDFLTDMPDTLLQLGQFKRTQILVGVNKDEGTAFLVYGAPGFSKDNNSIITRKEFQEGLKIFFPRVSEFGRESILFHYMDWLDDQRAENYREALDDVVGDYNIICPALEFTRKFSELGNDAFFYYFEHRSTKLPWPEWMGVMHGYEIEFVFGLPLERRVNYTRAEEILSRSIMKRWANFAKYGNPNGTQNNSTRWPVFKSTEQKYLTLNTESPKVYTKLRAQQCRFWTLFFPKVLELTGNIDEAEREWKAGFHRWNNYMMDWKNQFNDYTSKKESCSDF

Sequence of Cholinesterase (P81908 whole entry): as above
Sequence of Acetylcholinesterase (O42275 whole entry): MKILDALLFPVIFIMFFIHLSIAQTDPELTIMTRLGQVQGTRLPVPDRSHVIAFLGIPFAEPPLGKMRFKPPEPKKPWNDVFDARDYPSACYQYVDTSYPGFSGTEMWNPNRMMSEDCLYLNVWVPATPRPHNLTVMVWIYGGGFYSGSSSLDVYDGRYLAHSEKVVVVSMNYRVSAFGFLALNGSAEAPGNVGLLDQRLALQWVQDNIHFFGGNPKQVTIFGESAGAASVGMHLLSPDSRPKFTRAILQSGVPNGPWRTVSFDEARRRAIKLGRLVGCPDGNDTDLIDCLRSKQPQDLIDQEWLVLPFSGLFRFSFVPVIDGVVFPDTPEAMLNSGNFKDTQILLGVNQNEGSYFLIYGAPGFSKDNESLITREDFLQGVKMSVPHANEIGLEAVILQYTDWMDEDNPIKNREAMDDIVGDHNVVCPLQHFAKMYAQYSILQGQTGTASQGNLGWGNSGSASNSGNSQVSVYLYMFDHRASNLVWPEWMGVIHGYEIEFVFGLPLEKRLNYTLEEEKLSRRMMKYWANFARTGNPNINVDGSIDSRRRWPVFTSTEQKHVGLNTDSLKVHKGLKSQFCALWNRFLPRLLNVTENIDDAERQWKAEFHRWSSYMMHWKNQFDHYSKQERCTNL

Structure (SMILES): CC(C(=O)NCCCNc1c2c(nc3ccccc13)CCCC2)c1ccc(-c2ccc(OCCCCO[N+](=O)[O-])cc2)c(F)c1 (stereo unspecified)
- IC50 (Cholinesterase): 7.9 nM
- IC50 (Acetylcholinesterase): 357 nM

Structure (SMILES): CC(C(=O)NCCCCNc1c2c(nc3ccccc13)CCCC2)c1ccc(-c2ccc(OCCO[N+](=O)[O-])cc2)c(F)c1 (stereo unspecified)
- IC50 (Cholinesterase): 13.9 nM
- IC50 (Acetylcholinesterase): 227 nM

Structure (SMILES): CC(C(=O)NCCCNc1c2c(nc3ccccc13)CCCC2)c1ccc(-c2ccccc2)c(F)c1 (stereo unspecified)
- IC50 (Cholinesterase): 13.9 nM
- IC50 (Acetylcholinesterase): 345 nM

Structure (SMILES): CC(C(=O)NCCCCNc1c2c(nc3ccccc13)CCCC2)c1ccc(-c2ccccc2)c(F)c1 (stereo unspecified)
- IC50 (Cholinesterase): 11 nM
- IC50 (Acetylcholinesterase): 193 nM

Structure (SMILES): CC(C(=O)NCCCNc1c2c(nc3ccccc13)CCCC2)c1ccc(-c2ccc(OCCCO[N+](=O)[O-])cc2)c(F)c1 (stereo unspecified)
- IC50 (Cholinesterase): 8.6 nM
- IC50 (Acetylcholinesterase): 189 nM

Structure (SMILES): CC(C(=O)NCCCCNc1c2c(nc3ccccc13)CCCC2)c1ccc(-c2ccc(OCCCCO[N+](=O)[O-])cc2)c(F)c1 (stereo unspecified)
- IC50 (Cholinesterase): 7.7 nM
- IC50 (Acetylcholinesterase): 641 nM

Structure (SMILES): CC(C(=O)NCCNc1c2c(nc3ccccc13)CCCC2)c1ccc(-c2ccc(OCCCCCCO[N+](=O)[O-])cc2)c(F)c1 (stereo unspecified)
- inhibition [1]: Active
- IC50 (Cholinesterase): 7.6 nM
- IC50 (Acetylcholinesterase): 4310 nM

Structure (SMILES): CC(C(=O)NCCNc1c2c(nc3ccccc13)CCCC2)c1ccc(-c2ccc(OCCCO[N+](=O)[O-])cc2)c(F)c1 (stereo unspecified)
- IC50 (Cholinesterase): 10 nM
- IC50 (Acetylcholinesterase): 341 nM

Structure (SMILES): CC(C(=O)NCCNc1c2c(nc3ccccc13)CCCC2)c1ccc(-c2ccc(OCCO[N+](=O)[O-])cc2)c(F)c1 (stereo unspecified)
- IC50 (Cholinesterase): 9.9 nM
- IC50 (Acetylcholinesterase): 183 nM

Structure (SMILES): CC(C(=O)NCCCNc1c2c(nc3ccccc13)CCCC2)c1ccc(-c2ccc(OCCO[N+](=O)[O-])cc2)c(F)c1 (stereo unspecified)
- IC50 (Cholinesterase): 8.1 nM
- IC50 (Acetylcholinesterase): 112 nM

Structure (SMILES): CC(C(=O)NCCNc1c2c(nc3ccccc13)CCCC2)c1ccc(-c2ccc(OCCCCO[N+](=O)[O-])cc2)c(F)c1 (stereo unspecified)
- IC50 (Cholinesterase): 10.1 nM
- IC50 (Acetylcholinesterase): 1350 nM

Structure (SMILES): CC(C(=O)NCCCNc1c2c(nc3ccccc13)CCCC2)c1ccc(-c2ccc(OCCCCCCO[N+](=O)[O-])cc2)c(F)c1 (stereo unspecified)
- IC50 (Cholinesterase): 8.1 nM
- IC50 (Acetylcholinesterase): 1010 nM

Structure (SMILES): CC(C(=O)NCCCCNc1c2c(nc3ccccc13)CCCC2)c1ccc(-c2ccc(OCCCCCCO[N+](=O)[O-])cc2)c(F)c1 (stereo unspecified)
- IC50 (Cholinesterase): 3.9 nM
- IC50 (Acetylcholinesterase): 1460 nM

Structure (SMILES): CC(C(=O)NCCCCNc1c2c(nc3ccccc13)CCCC2)c1ccc(-c2ccc(OCCCO[N+](=O)[O-])cc2)c(F)c1 (stereo unspecified)
- IC50 (Cholinesterase): 10.6 nM
- IC50 (Acetylcholinesterase): 261 nM

Structure (SMILES): CC(C(=O)NCCNc1c2c(nc3ccccc13)CCCC2)c1ccc(-c2ccccc2)c(F)c1 (stereo unspecified)
- IC50 (Cholinesterase): 58.7 nM
- IC50 (Acetylcholinesterase): 715 nM
